One may read the EC50 as the concentration at which the effect is half-maximal.

Structures are written as SMILES.

One assay deals with T1, ERRα (Homo sapiens, UniProt P11474).
T1 construct: expressed in transfected cells; host or cells: HEK293
T1 sequence (P11474 1-423): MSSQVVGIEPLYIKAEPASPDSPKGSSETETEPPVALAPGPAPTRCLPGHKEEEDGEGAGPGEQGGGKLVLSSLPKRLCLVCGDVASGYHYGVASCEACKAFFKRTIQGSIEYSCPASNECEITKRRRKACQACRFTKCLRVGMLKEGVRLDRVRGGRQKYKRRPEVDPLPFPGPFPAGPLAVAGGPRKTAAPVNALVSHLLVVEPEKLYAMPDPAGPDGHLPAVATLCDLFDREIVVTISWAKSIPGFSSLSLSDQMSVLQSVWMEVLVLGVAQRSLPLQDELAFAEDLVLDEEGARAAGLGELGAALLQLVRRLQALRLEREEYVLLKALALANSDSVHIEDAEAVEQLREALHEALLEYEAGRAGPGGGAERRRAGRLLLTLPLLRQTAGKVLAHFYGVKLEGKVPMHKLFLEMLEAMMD
In words: ERRE luciferase reporter assay in HEK293 cells transfected with pcDNA3.1 ERRα. It counts as cell-based. Details: key to EC50 (ERRα): ***<1 μM; **1-5 μM; *>5 μM; i.a. (inactive). To be noted: 24 hours treatment, luciferase activity. On the procedure: (§1) HEK293 cells were maintained in Dulbecco's modified Eagles medium (DMEM) supplemented with 10% fetal bovine serum at 37° C. under 5% CO2. […] Cells were transfected with ERRE reporter construct and pcDNA3.1 ERRα or ERRγ. Twenty-four-hours post-transfection, the cells were treated with vehicle or compound (various concentrations) for 24 hours (4 wells per dose). Luciferase activity was measured using the One-Glo Tox luciferase reporter assay system (Promega) and […] were calculated using GraphPad Prism software.

The target in a further assay is T2, ERRγ (Homo sapiens, UniProt P62508).
T2 construct: expressed in transfected cells; host or cells: HEK293
T2 sequence (P62508 1-458): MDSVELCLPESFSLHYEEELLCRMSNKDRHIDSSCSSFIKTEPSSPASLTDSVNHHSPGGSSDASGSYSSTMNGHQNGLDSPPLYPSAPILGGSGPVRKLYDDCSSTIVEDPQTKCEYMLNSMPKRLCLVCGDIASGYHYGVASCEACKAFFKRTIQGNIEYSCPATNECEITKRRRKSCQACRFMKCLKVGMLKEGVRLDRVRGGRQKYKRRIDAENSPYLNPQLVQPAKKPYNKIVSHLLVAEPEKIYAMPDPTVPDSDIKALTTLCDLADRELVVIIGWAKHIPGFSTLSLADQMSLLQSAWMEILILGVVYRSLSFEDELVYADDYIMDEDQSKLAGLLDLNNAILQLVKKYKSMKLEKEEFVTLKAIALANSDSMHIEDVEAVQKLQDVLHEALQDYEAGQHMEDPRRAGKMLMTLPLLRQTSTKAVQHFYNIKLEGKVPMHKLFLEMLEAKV
The experiment in a line: ERRE luciferase reporter assay in HEK293 cells transfected with pcDNA3.1 ERRγ. In kind it is cell-based. The conditions noted are these: 24 hours treatment, luciferase activity. Set-up: key to EC50 (ERRγ): ***<1 μM; **1-5 μM; *>5 μM; i.a. (inactive). On the procedure:
as §1
(In general: Reporter assays use an easily measured gene product as a stand-in for the process of interest.)

At ERRα, `Oc1ccccc1C1CC(c2cccc(OC(F)(F)F)c2)=NN1` (centres unmarked) [Entry 1, o-[3-(m-Trifluoromethoxy-phenyl)-2-pyrazolin-5-yl]phenol] yielded a concentration for a half-maximal effect (EC50) of more than 5 µM. Also, the “EC50 (ERRγ)” value at ERRγ is on record as “i.a”.

`Oc1ccccc1C1CC(c2ccncc2)=NN1` (centres unmarked) [Entry 2, 2-(3-(pyridin-4-yl)-4,5-dihydro-1H-pyrazol-5-yl)phenol]: the “EC50 (ERRα)” value at ERRα is on record as “i.a”. In addition, the EC50 on ERRγ was more than 5 µM.

Consider `Oc1cccc(C2=NNC(c3cccc(O)c3)C2)c1` (centres unmarked) [Entry 3, 3,3′-(4,5-dihydro-1H-pyrazole-3,5-diyl)diphenol], for which the EC50 at ERRα and at ERRγ was 1 to 5 µM in each case.

Regarding `Oc1ccccc1C1CC(c2ccccc2OC(F)(F)F)=NN1` (centres unmarked) [Entry 4, 2-(3-(2-(trifluoromethoxy)phenyl)-4,5-dihydro-1H-pyrazol-5-yl)phenol], at ERRα, the “EC50 (ERRα)” value is “i.a”. Moreover, the “EC50 (ERRγ)” value on ERRγ is on record as “i.a”.

On to `Oc1cccc(C2CC(c3cc(C(F)(F)F)cc(C(F)(F)F)c3)=NN2)c1` (centres unmarked) [Entry 5, 3-(3-(3,5-bis(trifluoromethyl)phenyl)-4,5-dihydro-1H-pyrazol-5-yl)phenol], for which the “EC50 (ERRα)” value on ERRα was “i.a”. Also, on ERRγ, the “EC50 (ERRγ)” value is given as “i.a”.

With `Oc1ccccc1C1CC(c2cc(C(F)(F)F)cc(C(F)(F)F)c2)=NN1` (centres unmarked) [Entry 6, 2-(3-(3,5-bis(trifluoromethyl)phenyl)-4,5-dihydro-1H-pyrazol-5-yl)phenol], at ERRα, the “EC50 (ERRα)” value was “i.a”. Besides, on ERRγ, the “EC50 (ERRγ)” value is “i.a”.

In the case of `Oc1ccc(C2CC(c3ccc(Cl)cc3)=NN2)cc1` (centres unmarked) [Entry 7, 4-(3-(4-Chlorophenyl)-4,5-dihydro-1H-pyrazol-5-yl)phenol], the EC50 on ERRα and at ERRγ was more than 5 µM each time.

For `Oc1ccc(C2CC(c3cc(C(F)(F)F)cc(C(F)(F)F)c3)=NN2)cc1` (centres unmarked) [Entry 9, 4-(3-(3,5-bis(trifluoromethyl)phenyl)-4,5-dihydro-1H-pyrazol-5-yl)phenol], the “EC50 (ERRα)” value at ERRα is listed as “i.a”. The “EC50 (ERRγ)” value on ERRγ was “i.a”.

As for `Oc1cccc(C2CC(c3ccc(Cl)cc3)=NN2)c1` (centres unmarked) [Entry 10, 3-(3-(4-Chlorophenyl)-4,5-dihydro-1H-pyrazol-5-yl)phenol], the EC50 at ERRα is 1 to 5 µM; at ERRγ, less than 1 µM.

Regarding `CC(=O)N1N=C(c2ccc(Br)cc2)CC1c1ccccc1O` (centres unmarked) [Entry 12, 1-(3-(4-Bromophenyl)-5-(2-hydroxyphenyl)-4,5-dihydro-1H-pyrazol-1-yl)ethan-1-one], the “EC50 (ERRα)” value on ERRα is “i.a”. Further, the “EC50 (ERRγ)” value on ERRγ is “i.a”.

Turning to `COc1cccc(C2=NN(C(C)=O)C(c3ccccc3O)C2)c1` (centres unmarked) [Entry 13, 1-(5-(2-Hydroxyphenyl)-3-(3-methoxyphenyl)-4,5-dihydro-1H-pyrazol-1-yl)ethan-1-one], at ERRα, the “EC50 (ERRα)” value is “i.a”. In addition, the “EC50 (ERRγ)” value at ERRγ is listed as “i.a”.

For `CC(=O)N1N=C(c2cccc(C)c2)CC1c1ccccc1O` (centres unmarked) [Entry 14, 1-(5-(2-Hydroxyphenyl)-3-(m-tolyl)-4,5-dihydro-1H-pyrazol-1-yl)ethan-1-one], the “EC50 (ERRα)” value at ERRα is “i.a”. Further, the “EC50 (ERRγ)” value at ERRγ is listed as “i.a”.

Turning to `CC(=O)N1N=C(c2ccccc2O)CC1c1ccccc1O` (centres unmarked) [Entry 15, 1-(3,5-bis(2-hydroxyphenyl)-4,5-dihydro-1H-pyrazol-1-yl)ethan-1-one], the “EC50 (ERRα)” value at ERRα is recorded as “i.a”. In addition, the “EC50 (ERRγ)” value at ERRγ is “i.a”.

For `CC(=O)N1N=C(c2ccccc2Cl)CC1c1ccccc1O` (centres unmarked) [Entry 16, 1-(3-(2-Chlorophenyl)-5-(2-hydroxyphenyl)-4,5-dihydro-1H-pyrazol-1-yl)ethan-1-one], the “EC50 (ERRα)” value on ERRα is “i.a”. The “EC50 (ERRγ)” value on ERRγ was “i.a”.

Turning to `Oc1ccccc1C1CC(c2cccs2)=NN1` (centres unmarked) [Entry 17, 2-(3-(Thiophen-2-yl)-4,5-dihydro-1H-pyrazol-5-yl)phenol], the EC50 on ERRα and at ERRγ was more than 5 µM throughout.

Consider `Oc1cccc(C2CC(c3ccccc3O)=NN2)c1` (centres unmarked) [Entry 18, 2-(5-(3-Hydroxyphenyl)-4,5-dihydro-1H-pyrazol-3-yl)phenol], for which the EC50 at ERRα and on ERRγ was 1 to 5 µM throughout.

In the case of `FC(F)(F)c1cc(C2=NNC(c3ccc4ccccc4c3)C2)cc(C(F)(F)F)c1` (centres unmarked) [Entry 20, 3-(3,5-bis(trifluoromethyl)phenyl)-5-(naphthalen-2-yl)-4,5-dihydro-1H-pyrazole], the “EC50 (ERRα)” value on ERRα is on record as “i.a”. In addition, the “EC50 (ERRγ)” value at ERRγ is “i.a”.

For the compound `Oc1ccccc1C1=NNC(c2ccc3ccccc3c2)C1` (centres unmarked) [Entry 21, 2-(5-(Naphthalen-2-yl)-4,5-dihydro-1H-pyrazol-3-yl)phenol], the “EC50 (ERRα)” value at ERRα is “i.a”. Besides, the EC50 on ERRγ is less than 1 µM.

Turning to `CCc1ccccc1C1CC(c2ccccc2O)=NN1` (centres unmarked) [Entry 22, 2-(5-(2-Ethylphenyl)-4,5-dihydro-1H-pyrazol-3-yl)phenol], on ERRα, the “EC50 (ERRα)” value was “i.a”. Also, the “EC50 (ERRγ)” value at ERRγ is “i.a”.

Take `Cc1cccc(C2=NNC(c3ccccc3O)C2)c1` (centres unmarked) [Entry 23, 2-(3-(m-Tolyl)-4,5-dihydro-1H-pyrazol-5-yl)phenol]: the EC50 at ERRα is less than 1 µM; at ERRγ, 1 to 5 µM.

`Oc1ccccc1C1CC(c2ccc(Br)cc2)=NN1` (centres unmarked) [Entry 24, 2-(3-(4-Bromophenyl)-4,5-dihydro-1H-pyrazol-5-yl)phenol]: the EC50 at ERRα and on ERRγ was less than 1 µM each time.

In the case of `Oc1ccccc1C1CC(c2ccccn2)=NN1` (centres unmarked) [Entry 25, 2-(3-(Pyridin-2-yl)-4,5-dihydro-1H-pyrazol-5-yl)phenol], the half-maximal effective concentration (EC50) at ERRα and at ERRγ was more than 5 µM throughout.

With `Oc1ccccc1C1CC(c2cccnc2)=NN1` (centres unmarked) [Entry 26, 2-(3-(Pyridin-3-yl)-4,5-dihydro-1H-pyrazol-5-yl)phenol], the EC50 at ERRα and at ERRγ was more than 5 µM in each case.

Turning to `Cc1ccccc1C1=NNC(c2ccccc2O)C1` (centres unmarked) [Entry 27, 2-(3-(o-Tolyl)-4,5-dihydro-1H-pyrazol-5-yl)phenol], the “EC50 (ERRα)” value on ERRα is on record as “i.a”. The “EC50 (ERRγ)” value at ERRγ is listed as “i.a”.

On to `Cc1ccc(C2=NNC(c3ccccc3O)C2)cc1` (centres unmarked) [Entry 28, 2-(3-(p-tolyl)-4,5-dihydro-1H-pyrazol-5-yl)phenol], for which the “EC50 (ERRα)” value on ERRα was “i.a”. Also, the “EC50 (ERRγ)” value at ERRγ is “i.a”.

As to `Oc1ccccc1C1CC(c2cccc(Br)c2)=NN1` (centres unmarked) [Entry 29, 2-(3-(3-Bromophenyl)-4,5-dihydro-1H-pyrazol-5-yl)phenol], the EC50 at ERRα and at ERRγ was more than 5 µM in each case.

`Oc1ccccc1C1=NNC(c2ccccc2O)C1` (centres unmarked) [Entry 30, 2,2′-(4,5-Dihydro-1H-pyrazole-3,5-diyl)diphenol]: the EC50 on ERRα and on ERRγ was more than 5 µM throughout.

On to `Oc1ccccc1C1CC(c2cccc(F)c2)=NN1` (centres unmarked) [Entry 31, 2-(3-(3-Fluorophenyl)-4,5-dihydro-1H-pyrazol-5-yl)phenol], for which the EC50 on ERRα was 1 to 5 µM; on ERRγ, more than 5 µM.

`Oc1c(F)cccc1C1CC(c2ccc(Br)cc2)=NN1` (centres unmarked) [Entry 32, 2-(3-(4-Bromophenyl)-4,5-dihydro-1H-pyrazol-5-yl)-6-fluorophenol]: the “EC50 (ERRα)” value on ERRα was “i.a”. In addition, on ERRγ, the “EC50 (ERRγ)” value is reported as “i.a”.

`Oc1ccccc1C1CC(c2ccccc2)=NN1` (centres unmarked) [Entry 34, 2-(3-Phenyl-4,5-dihydro-1H-pyrazol-5-yl)phenol]: the figures for the EC50 at ERRα and at ERRγ were more than 5 µM and 1 to 5 µM, respectively.

For `Oc1c(Br)cccc1C1CC(c2ccc(Br)cc2)=NN1` (centres unmarked) [Entry 35, 2-Bromo-6-(3-(4-bromophenyl)-4,5-dihydro-1H-pyrazol-5-yl)phenol], the EC50 on ERRα and at ERRγ was 1 to 5 µM in each case.

On to `COc1cccc(C2CC(c3ccc(Br)cc3)=NN2)c1O` (centres unmarked) [Entry 36, 2-(3-(4-Bromophenyl)-4,5-dihydro-1H-pyrazol-5-yl)-6-methoxyphenol], for which the EC50 at ERRα and on ERRγ was less than 1 µM in each case.

Take `Nc1ccccc1C1CC(c2ccccc2)=NN1` (centres unmarked) [Entry 37, 2-(3-Phenyl-4,5-dihydro-1H-pyrazol-5-yl)aniline]: the EC50 at ERRα and at ERRγ was less than 1 µM throughout.

Turning to `Cc1ccc(C2CC(c3ccccc3)=NN2)c(O)c1` (centres unmarked) [Entry 38, 5-Methyl-2-(3-phenyl-4,5-dihydro-1H-pyrazol-5-yl)phenol], the EC50 at ERRα and on ERRγ was 1 to 5 µM in each case.
